A short description of data set [1]: PPI/NSAID drug substance compatibility: storage of lansoprazole/NSAID mixtures with and without buffer. Type of data set: physicochemical. Here is the method: Various NSAIDs were combined with lansoprazole with and without a buffer to determine the compatibility of the components. The various mixtures were placed at room temperature and 40° C. with 75% relative humidity. The samples were tested initially and after two weeks at the storage conditions above. The results are reported in Table 1 below as a percent of the theoretical amount of a given component.

Data set [2] in a line: Potency by HPLC and compatibility on storage of granulations and drug substances. Type of data set: physicochemical. Particulars: for Potency 2 Weeks Extreme Conditions, NSAID: 2 weeks at 40° C. with 75% to 85% relative humidity; for Potency 4 Weeks Extreme Conditions, NSAID: 4 weeks at 40° C. with 75% to 85% relative humidity; for Potency 19 Days RT, NSAID: 19 days at room temperature; for Potency 33 Days RT, NSAID: 33 days at room temperature. Here is the method:
In this example, granulations of a PPI and various NSAIDs were prepared to determine the compatibility of these substances with each other in a granulated form.
The potency (mg/g) of each drug substance in each granulation was determined by HPLC.
Granulations A, C, and D, as well as naproxen and piroxicam drag substances were weighed and separately placed in scintillation vials and stored at room temperature (RT) and at 40° C. with 75% to 85% relative humidity (“Extreme Conditions”). Granulations A, C, and D, as well as the naproxen and piroxicam, were tested for potency of the lansoprazole and NSAID after 19 and 33 days at the room temperature conditions and after two and four weeks under the Extreme Conditions.

Turning to `Cc1c(OCC(F)(F)F)ccnc1C[S+]([O-])c1nc2ccccc2[nH]1` (centres unmarked) [Lansoprazole, lansoprazole], the “% of Theory, 40° C. 75% humidity, lanso” value in data set [1] (lansoprazole recovered after two weeks at 40° C. with 75% relative humidity) is 99.1/NA %. In addition, the “% of Theory, Room Temp., lanso” value in data set [1] (lansoprazole recovered after two weeks at room temperature) is 99.1/NA %. Also, the “% of Theory, Initial, lanso” value in data set [1] (lansoprazole recovered, initial) is reported as 100.8/NA %.

For the compound `COc1ccc2cc([C@H](C)C(=O)O)ccc2c1` [Naproxen, naproxen], in data set [2], the “Potency 2 Weeks Extreme Conditions, NSAID” value was “NA/996.7 mg/g”; the “Potency 4 Weeks Extreme Conditions, NSAID” value is “NA/1000.9 mg/g”; the “Potency 19 Days RT, NSAID” value is “NA/997.2 mg/g”; the “Potency 33 Days RT, NSAID” value is recorded as “NA/998.2 mg/g”.

Take `CN1C(C(=O)Nc2ccccn2)=C(O)c2ccccc2S1(=O)=O` [Piroxicam, piroxicam]: in data set [2], the “Potency 2 Weeks Extreme Conditions, NSAID” value is “NA/942.2 mg/g”; the “Potency 4 Weeks Extreme Conditions, NSAID” value is “NA/1005.5 mg/g”; the “Potency 19 Days RT, NSAID” value is on record as “NA/1027.1 mg/g”; the “Potency 33 Days RT, NSAID” value is “NA/998.5 mg/g”.

(Values after US20090075950A1, “Dosage Forms Containing A PPI, NSAID And A Buffer” (Takeda Pharmaceuticals North America, Inc., priority 2002, published 2009).)
